Results from patent US20130030006A1, “AGENT FOR PREVENTING OR TREATING DISEASES ACCOMPANIED BY URINARY PAIN” (priority 2010, published 2013).

Columns and labels:
[1] = target: T1, FAAH (Homo sapiens, UniProt O00519); assay: Measurement of IC50 value of substance inhibiting FAAH activity using human bladder epithelial carcinoma-derived cell line 5637; assay type: cell-based
T1 construct: Human bladder epithelial carcinoma-derived cell line, 5637 cells (HTB-9; host or cells: 5637 human bladder epithelial carcinoma cells
T1 sequence (O00519 1-579): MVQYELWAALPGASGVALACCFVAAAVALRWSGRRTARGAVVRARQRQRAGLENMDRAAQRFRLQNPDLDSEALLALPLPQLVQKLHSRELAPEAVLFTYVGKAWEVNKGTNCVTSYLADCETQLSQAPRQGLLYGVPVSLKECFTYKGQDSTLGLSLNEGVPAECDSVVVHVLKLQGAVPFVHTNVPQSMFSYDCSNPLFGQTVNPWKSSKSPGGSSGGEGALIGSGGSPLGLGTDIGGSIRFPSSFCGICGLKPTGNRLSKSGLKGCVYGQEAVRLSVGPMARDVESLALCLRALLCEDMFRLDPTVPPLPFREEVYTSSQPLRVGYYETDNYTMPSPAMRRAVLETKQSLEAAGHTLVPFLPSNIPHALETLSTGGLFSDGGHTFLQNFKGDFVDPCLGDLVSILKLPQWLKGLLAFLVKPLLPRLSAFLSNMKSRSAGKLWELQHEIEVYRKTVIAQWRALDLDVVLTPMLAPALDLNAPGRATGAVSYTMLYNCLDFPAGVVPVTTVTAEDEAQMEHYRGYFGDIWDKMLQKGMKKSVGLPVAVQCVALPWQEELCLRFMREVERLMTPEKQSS
Procedure: Screening of Substance Inhibiting FAAH Activity by Using Human Bladder Epithelial Carcinoma-Derived Cell Line
(1) Screening of Substance Inhibiting FAAH Activity
Human bladder epithelial carcinoma-derived cell line, 5637 cells (HTB-9; ATCC) were seeded in a 48-well cell culture plate in an amount of 1×10^5 cells/well by using RPMI 1640 medium (Invitrogen) containing 10% fetal bovine serum (HyClone), followed by incubation at 37° C. for 12 hours or longer, and then the cells in each well were washed with 400 μl of a buffer (Hank's Balanced Salt Solution, 20 mM Hepes-NaOH (pH 7.4)). A test substance dissolved in DMSO was added to a substrate solution (the above buffer containing 3 μCi/ml radiolabeled anandamide (anandamide [ethanolamine 1-^3H]) and 10 μM anandamide) so as to have a concentration from 0.003 nM to 30 nM, and as a control, DMSO was added alone. 100 μl/well of the substrate solution was added to the cells, followed by incubation in a CO2 incubator at 37° C. for 30 minutes. […] A substance decreasing a measured value compared to the control was selected as a substance inhibiting FAAH activity. […]

[2] = system: rat model with bladder pain; assay: Rat model with bladder pain (cyclophosphamide pre-treated, bladder expansion); assay type: in vivo
Procedure: Action of Compound with Respect to Rat Model with Bladder Pain
The analgesic action of the compound against bladder pain was examined using a pathological model. Cyclophosphamide (150 mg/kg) was administered intraperitoneally, and after two days, physiological saline was injected under a non-restraint condition, at a rate of 45 ml/h via a cannula inserted transurethrally into the bladder, thereby rapidly expanding the bladder. Due to rapid expansion of the bladder, amplification of electromyogram spikes in external oblique abdominal muscle accompanying behavior relating to pain was confirmed. The injection amount at this point in time can be taken as a threshold of bladder pain, which makes it possible to evaluate drug efficacy with respect to the threshold of bladder pain. […] For the rats pre-treated with cyclophosphamide, the threshold of bladder pain before and after the administration of a test compound was measured, and the change in amount (Δ ml) was investigated. In order to obtain a value before administration, bladder expansion was performed until a stabilized threshold of bladder pain was consecutively obtained three times, and the average of the threshold of bladder pain of the final three times was taken as a measured value. […] The average of the threshold of bladder pain consecutively measured three times was taken as a value measured after administration.

[3] = system: rat model with testis pain; assay: Rat model with testis pain (acetic acid into testes, writhing); assay type: in vivo
Procedure: Action of Compound with Respect to Rat Model with Testis Pain
The analgesic action of the compound against testis pain was examined using a pathological model. If 1% acetic acid is administered at 1 ml/kg to right and left testes of a rat by using an injection needle, pain behavior (writhing) accompanied by testis pain is observed, which makes it possible to evaluate drug efficacy on the pain behavior. […] The rats were transferred to a cylindrical acryl cage having a diameter of 30 cm and a height of 50 cm, and the number of times of pain behavior shown for 5 minutes to 15 minutes after the acetic acid administration was measured.

SMILES: NC(=O)c1cncc(OC(=O)N2CCC(CCc3cccc(C(=O)N4CCCCC4)c3)CC2)c1 [Compound I, 5-(aminocarbonyl)pyridin-3-yl 4-{2-[3-(piperidin-1-ylcarbonyl)phenyl]ethyl}piperidine-1-carboxylate]
- IC50 [1]: 0.16 nM

SMILES: NC(=O)c1cncc(OC(=O)N2CCC(CCc3cccc(C(=O)N4CCCC4)c3)CC2)c1 [Compound J, 5-(aminocarbonyl)pyridin-3-yl 4-{2-[3-(pyrrolidin-1-ylcarbonyl)phenyl]ethyl}piperidine-1-carboxylate]
- Threshold of bladder pain (amount of physiological saline injected), compound-administered group ([2]; rat, in vivo, po): 0.150 Δ ml
- Number of times of pain behavior, compound-administered group ([3]; rat, in vivo, po): 9.5

SMILES: O=C(Nc1ccccc1)C1CCN(C(=O)Oc2cccnc2)CC1 [Compound L, pyridin-3-yl 4-(anilinocarbonyl)piperidine-1-carboxylate]
- Threshold of bladder pain (amount of physiological saline injected), compound-administered group ([2]; male SD rats, 3 mg/5 ml/kg oral, 120 minutes before measurement, change before vs after administration): 0.173 Δ ml
- Number of times of pain behavior, compound-administered group ([3]; male Wistar rats, 3 mg/5 ml/kg oral, 120 minutes before measurement, counted 5 to 15 minutes after acetic acid): 6.7
